Legend:
Assay type in all cases: in vivo, rat
[1] = test system: gonads of male and female, sexually immature rats; test: Effects on gonads and prostate of sexually immature rats (FIG. 3)
Description: ERβ-selective properties can be studied in the case of female and male rats that are not sexually mature. […] In the case of a parenteral dose of 1 μg/animal/day, estradiol results in a complete inhibition of testicular growth. […] The action on the somatotropic functions, gonad functions and the genital tract was studied in infant, gonad-intact, male and female rats. Effects of ERβ-agon or ERβ-selective agonists (agon) (E2) on gonads of male and female, sexually immature rats in comparison to estradiol. Treatment of the young animals after weaning over 7 days (day 1-day 7, autopsy day 8, subcutaneous injection).

[2] = test system: uterus of adult rats that have undergone ovariectomies; test: Uterotropic action in adult ovariectomized rats (FIG. 1); conditions: for dose giving increase in uterus weight ("standard" estrogenic activity): treatment day 1-day 3, autopsy day 4
Description: The substances that are to be used according to the invention have very little action in terms of “standard estrogens.” Corresponding estrogenic properties can be examined in the rats that have undergone ovariectomy. In the case of parenteral administration, 17β-estradiol even at a dose of 0.1 μg results in an increase in uterus weight. […] These substances have a correspondingly small action on the parameters of hepatic estrogeneity, for example the increase of the angiotensinogen in the blood. To examine the action of the ERβ-selective agonists in the context according to the invention, their estrogenic action on the genital tract, liver functions, somatotropic factors and on the secretion of gonadotropins was examined in comparison to estradiol in adult rats that have undergone ovariectomies. Determination of the uterotropic action of an ERα- or ERβ-selective agonist (agon) in comparison to estradnol (E2) Study of adult rats that have undergone ovariectomies 14 days after the ovariectomies, treatment day 1-day 3, autopsy day 4, subcutaneous administration in 0.2 ml of vehicle.

[3] = test system: IGF-I in the plasma from sexually immature rats with intact ovaries; test: IGF-I in the plasma of sexually immature rats (FIG. 4); conditions: 7 days subcutaneous, two tests with different dose ranges
Source text: Effects of ERα- or ERβ-selective agonists (agon) on IGF-I in the plasma from sexually immature rats with intact ovaries in comparison to estradiol (E2). Treatment of the young animals after weaning over 7 days (day 1-day 7, autopsy day 8; subcutaneous injection) in two tests with different dose ranges.

[4] = test system: cholesterol fractions in the plasma from sexually immature rats with intact ovaries; test: Cholesterol fractions in the plasma of sexually immature rats (FIG. 5); conditions: 7 days subcutaneous
Source text: Effects of ERα- or ERβ-selective agonists (agon) on the cholesterol fractions in the plasma from sexually immature rats with intact ovaries in comparison to estradiol (E2). Treatment of the young animals after weaning over 7 days (day 1-day 7, autopsy day 8, subcutaneous injection) in two tests with different dose ranges.

[5] = test system: adrenal glands and thymus of sexually immature rats with intact ovaries; test: Organ weights of adrenal glands and thymus of sexually immature rats (FIG. 6); conditions: 7 days subcutaneous
Source text: Effects of ERα- or ERβ-selective agonists (agon) on the development of the organ weights of the adrenal glands and the thymus of sexually immature rats with intact ovaries in comparison to estradiol (E2). Treatment of young animals after weaning over 7 days (day 1-day, 7, autopsy day 8, subcutaneous injection).

[6] = test system: body growth of sexually immature rats whose ovaries are intact; test: Body growth of sexually immature rats (FIG. 7); conditions: immature rats with intact ovaries, 7 days subcutaneous
Source text: Effects of ERα- or ERβ-selective agonists (agon) on the body growth of sexually immature rats whose ovaries are intact in comparison to estradiol (E2). Treatment of the young animals after weaning over 7 days (day 1-day 7, autopsy day 8, subcutaneous injection) in two tests with different dose ranges.

[7] = Plasma levels after one-time oral or subcutaneous administration to ovariectomized rats, RIA (FIG. 8); conditions: one-time oral 1.0 mg or subcutaneous graduated dosages
Description: Plasma levels of the ERβ-selective agonist after a one-time oral or parenteral (subcutaneous injection) administration to ovariectomized rats, determinations 0.5; 1; 3; 6; 24 hours after oral administration of 1.0 mg (left) or 1; 2; 4; 6; 24 hours after subcutaneous administration of graduated dosages. Immunological determination by means of LCMS-validated Radio Immuno Assay (RIA).

[8] = test system: uterus and vagina of ovary-intact, sexually immature rats; test: Effects on uterus and vagina in ovary-intact, sexually immature rats (FIG. 2); conditions: 7 days subcutaneous
Source text: The action on the somatotropic functions, gonad functions and the genital tract was studied in infant, gonad-intact, male and female rats. Effects of ERβ-agon or ERβ-selective agonists (agon) (E2) on the uterus and vagina in ovary-intact, sexually immature rats in comparison to estradiol. Treatment of the young animals after weaning over 7 days (day 1-day 7, autopsy day 8, subcutaneous injection) in two tests with different dose ranges.

| Compound | dose giving complete inhibition of testicular growth ([1]; parenteral) [μg/animal/day] | dose giving increase in uterus weight ("standard" estrogenic activity) ([2]; subcutaneous) [µg] | IGF-I in the plasma [3] | induction of uterus growth ([2]; subcutaneous, compared with ERβ-agon) | HDL-cholesterol fraction in the plasma at high doses ([4]; high doses) | total cholesterol in the plasma at high doses ([4]; high doses) | adrenal gland weight [5] | thymus weight [5] | thymus weight at higher dosages ([5]; higher dosages) | body growth (weight increase) at higher dosages ([6]; higher dosages) | growth of the prostate ([1]; 7 days subcutaneous) | testicular growth ([1]; 7 days subcutaneous, autopsy day 8) | testicular growth at high doses ([1]; high doses, 7 days subcutaneous) | dose relative to estradiol for comparable uterotropic effect ([2]; parenteral, versus 0.1 μg of E2) [fold] | HDL-cholesterol fraction in the plasma ([4]; broad dose range) | total cholesterol in the plasma ([4]; broad dose range) | oral bioavailability (plasma levels) [7] | body growth ([6]; two tests with different dose ranges) | weight development of the uterus and vagina ([8]; autopsy day 8) | effects on uterus and vagina weight compared with ERα-agon and E2 ([8]; lowest tested dose) |
| --- | --- | --- | --- | --- | --- | --- | --- | --- | --- | --- | --- | --- | --- | --- | --- | --- | --- | --- | --- | --- |
| C[C@]12CC[C@@H]3c4ccc(O)cc4CC[C@H]3[C@@H]1CC[C@@H]2O [E2, estradiol, reference compound] | 1 | 0.1 | – | – | – | – | – | – | – | – | – | – | – | – | – | – | – | – | – | – |
| C[C@]12CC[C@@H]3c4ccc(O)cc4CC[C@H]3[C@@H]1C[C@H]1OC(=O)C[C@]12O [ERα-agon, 3,17β-dihydroxy-19-nor-17α-pregna-1,3,5(10)-triene-21,16α-lactone, reference compound] | – | – | No comparable effects | induce uterus growth in the case of much lower dosage than the ERβ-agon | drop the HDL-cholesterol fraction | drop the HDL-cholesterol fraction and the total cholesterol | less pronounced positive effects | less pronounced positive effects | reduction of the thymus weight | considerable reduction of the weight increase | – | – | – | – | – | – | – | – | – | – |
| C=C[C@@]12CCc3cc(O)ccc3[C@H]1CC[C@@]1(C)[C@H]2CC[C@@H]1O [ERβ-agon, 8β-vinyl-1,3,5(10)-estratriene-3,17β-diol] | – | 100 | Statistically significant increase of the IGF-I | – | – | – | increase of adrenal gland weight | increase of adrenal gland weight and thymus weight | – | – | acceleration of the growth of the prostate | stimulates testicular growth beyond the normal size, which is statistically significant | inhibition of the testicular growth | 1000 | increase of the HDL-cholesterol fraction | elevated plasma levels of the total cholesterol | orally readily bioavailable | accelerated growth of the animals via a broad dose range | considerable effects on the weight development of the uterus and vagina in extremely low dosages | exceed those of ERα-agon, and E2 is statistically significant |

From patent US20030130249A1, “Therapeutic use of estrogen receptor (ER)beta-selective agonists for triggering somatotropic, organotropic and anticatabolic effects (somatotropic therapy)” (Schering AG, priority 2001, published 2003)
